Results taken from US9393249B2, “Antimicrobial composition” (INSTITUTE OF TECHNOLOGY SLIGO, priority 2008, dated 2016).

The compounds below were run on L929 cells (assay: ISO 10993-5 agar overlay cytotoxicity (neutral red)). Details: 24 hrs.
Method: ISO 10993, agar overlay tests for cytotoxicity: in vitro method is also used, employing L929 cells (mouse fibroblasts ECACC 85011425). In brief; a confluent monolayer of cells is incubated, this is then covered with a layer fresh medium (EMEM, 2 mM L-Glutamine, 5% FBS, 2% Penicillin-Streptomycin) containing 1.5 g/l of soft agar and allowed to solidify. One tenth of the surface is covered with test materials (previously described) and incubated for 24 hrs. Post incubation the test material is carefully removed and a vital stain (neutral red) in fresh media added. After incubation this is removed, the cells washed and then the dye extracted from the cells and quantified spectrophotometrically for cell viability.
Percent toxicity was calculated according to the formula: % Toxicity=1−(OD average of test material wells/average OD of corresponding control wells (sodium azide added))×100. Included in the assay are a 50% concentration of A^3IS, a range of concentrations of commercial silver containing gel and commercial zinc containing gel product, compared to sodium azide (positive control). […] For the agar overlay toxicity assay the amount of test materials used was similar to that used for the initial direct contact assays of 100 mg per well however the contact time was extended to 24 hrs.

| SMILES | % Toxicity [%] |
| --- | --- |
| [N-]=[N+]=[N-] [sodium azide] | 100 |

What follows are compounds tested on S. aureus NCIMB 9587 (assay: Checkerboard synergy test). Details: MIC as two-fold dilution fraction of each agent's final dilution (A^3IS 3%; antibiotics 1:100 to 1:3,200,000); overnight 35° C.
Format: cell-based, Staphylococcus aureus
Method: Stock solutions were prepared according to published standards (CLSI (Clinical and Laboratory Standards Institute): Performance Standards for Antimicrobial Susceptibility testing. Fifteenth Informational Supplement. CLSI document M100-S15. Pennsylvania USA 2005, 19087-1898)
Synergy tests were performed in 96-well microtiter plates containing the A^3IS (from Example 3)/antibiotic combinations in two fold dilutions dispensed in a checkerboard fashion on the day of the assay. Each well contained 0.1 mL of A^3IS/antimicrobial combinations. A suspension of S. aureus test culture was prepared from an overnight broth culture to yield a final inoculum of approximately 3×10^5 to 5×10^5 CFU/mL. Twenty microliters of this suspension was added to all but the sterility control wells. MICs were read after overnight incubation at 35° C. Growth and sterility controls were included in each plate. Each isolate was tested twice. Growth was determined by visually examining each well for evidence of turbidity.
For the first clear well in each row of the microtiter plate containing both antimicrobial agents, the fractional inhibitory concentration (FIC) was calculated as follows: FIC of drug A (FICA)=MIC of drug A in combination/MIC of drug A alone, and the FIC of drug B (FICB)=MIC of drug B in combination/MIC of drug B alone.

| SMILES | MICs for A^3IS & antibiotics on S. aureus NCIMB 9587 |
| --- | --- |
| CO/N=C(\C(=O)N[C@@H]1C(=O)N2C(C(=O)O)=C(COC(N)=O)CS[C@H]12)c1ccco1 [Zinacef, Cefuroxime] | ½ |
| CC[C@H]1OC(=O)[C@H](C)[C@@H](O[C@H]2C[C@@](C)(OC)[C@@H](O)[C@H](C)O2)[C@H](C)[C@@H](O[C@@H]2O[C@H](C)C[C@H](N(C)C)[C@H]2O)[C@](C)(OC)C[C@@H](C)C(=O)[C@H](C)[C@@H](O)[C@]1(C)O [KIacid] | ½ |
| Cc1onc(-c2c(F)cccc2Cl)c1C(=O)N[C@@H]1C(=O)N2[C@@H]1SC(C)(C)[C@@H]2C(=O)O [Flucloxacillin] | ½ |
| CC1=C(C(=O)O)N2C(=O)[C@@H](NC(=O)[C@H](N)C3=CCC=CC3)[C@H]2SC1 [Velocef, Cefradine] | ¼ |
| CC[C@H]1OC(=O)[C@H](C)[C@@H](O[C@H]2C[C@@](C)(OC)[C@@H](O)[C@H](C)O2)[C@H](C)[C@@H](O[C@@H]2O[C@H](C)C[C@H](N(C)C)[C@H]2O)[C@](C)(O)C[C@@H](C)C(=O)[C@H](C)[C@@H](O)[C@]1(C)O [Erythrocin] | ½ |
| CC1(C)S[C@@H]2[C@H](NC(=O)[C@H](N)c3ccc(O)cc3)C(=O)N2[C@H]1C(=O)O [Amoxicillin] | ¼ |

Each compound was assayed on Candida albicans (assay: Well/disc diffusion inhibition assay of combinations). Details: 50 μl A^3IS + 50 μg agent versus 100 μl A^3IS alone; FIG. 19.
Format: cell-based
Method: Various combinations of A^3IS (from Example 3) and antibiotics/antifungal agents were tested against a placebo and A^3IS alone using a well/disc diffusion method. […] Well/Disc Diffusion Methods for Measurement of Microbial Inhibition: Agar plates were inoculated by swabbing overnight culture onto the plate surface. Plates were allowed to stand at room temperature for 15 minutes before use. Wells 8.2 mm diameter were bored into the surface of the agar. 100 μl of samples (a) to (c) was placed into each well. The samples diffuse into the agar around the well and are assayed for an ability to produce a zone of inhibition. Plates are incubated for 24, 48 or 72 hrs and zones of inhibition are measured. The diameter of zones, including the diameter of the well (8.2 mm) was recorded.

| SMILES | effect of combination with hydrogen peroxide source (zone of inhibition) |
| --- | --- |
| Clc1ccccc1C(c1ccccc1)(c1ccccc1)n1ccnc1 [Clotrimazole] | effects going beyond a combination/additive effects with hydrogen peroxide |
| CN(C/C=C/C#CC(C)(C)C)Cc1cccc2ccccc12 [Terbidifine] | effects going beyond a combination/additive effects with hydrogen peroxide |
| CC(=O)N1CCN(c2ccc(OCC3COC(Cn4ccnc4)(c4ccc(Cl)cc4Cl)O3)cc2)CC1 (centres unmarked) [Ketoconazole] | effects going beyond a combination/additive effects with hydrogen peroxide |
| Cc1cc(C2CCCCC2)n(O)c(=O)c1.NCCO [Cyclopiroxalomine] | effects going beyond a combination/additive effects with hydrogen peroxide |

These compounds were tested on clinical isolates of Mastitis causing Staphylococcus aureus (assay: Inhibition assay (3 day repeats) on mastitis clinical isolates). Details: FIG. 11b.
Format: cell-based
Method: • Escherichia coli (NCIMB 8545), Staphylococcus aureus (NCIMB 9518) and Pseudomonas aeruginosa (NCIMB 8626) are grown on nutrient agar or in nutrient broth for 24 hrs at 37° C. • Candida albicans (NCIMB 3179) and Saccharomyces cerevisiae are grown on sabaroud dextrose agar or in sabaroud dextrose broth for 24 hrs at 37° C. • Propionibacterium acnes (P. acnes ATCC/NTC 11827) is grown anaerobically on blood agar or in nutrient broth for 72 hrs at 37° C. • 22 isolates of Staphylococcus aureus from clinical mastitis obtained from Sligo regional Veterinary Laboratories are grown on nutrient agar or in nutrient broth for 24 hrs at 37° C. • For testing conducted in the Sligo Regional General Hospital; five Beta haemolytic Streptococci Group A clinical isolates are grown on blood agar or in nutrient broth for 24 hrs at 37° C. • Campylobacter coli (NCTC 11366) is grown on brain heart infusion agar or in brain heart infusion broth for 72 hrs at 37° C. • Campylobacter jejuni (NCTC 11322) and three clinical isolates are grown on brain heart infusion agar or in brain heart infusion broth for 72 hrs at 37° C. • MRSA (ATCC 43300) and seven clinical isolates are grown on nutrient agar or in brain heart infusion broth for 72 hrs at 37° C. • Laboratory mould isolates are grown on sabaroud dextrose agar or in sabaroud dextrose broth for 48 hrs at 25° C. • Botrytis cinerea is grown on sabaroud dextrose agar or in sabaroud dextrose broth for 48 hrs at 25° C.
Agar plates are inoculated by swabbing overnight culture onto the plate surface. Plates are allowed to stand at room temperature for 15 minutes before use. Wells 8.2 mm diameter are bored into the surface of the agar. One hundred and eighty μl of sample is placed into each well. The samples diffuse into the agar around the well and are assayed for an ability to produce a zone of inhibition. Plates are incubated for 24, 48 or 72 hrs and zones of inhibition are measured using an Autodata automatic zone reader. The diameter of zones, including the diameter of the well (8.2 mm), is recorded. […]

| SMILES | sensitivity of clinical isolate number 15 |
| --- | --- |
| O=C(N[C@H](CO)[C@H](O)c1ccc([N+](=O)[O-])cc1)C(Cl)Cl [Chloramphenicol] | only mild sensitivity |
| [H]/N=C(/N)N[C@H]1[C@H](O)[C@@H](O)[C@H](O[C@@H]2O[C@@H](C)[C@](O)(C=O)[C@H]2O[C@@H]2O[C@@H](CO)[C@H](O)[C@@H](O)[C@@H]2NC)[C@@H](N/C(N)=N\[H])[C@@H]1O [Streptomycin] | resistant |
| CN[C@H](CC(C)C)C(=O)N[C@H]1C(=O)N[C@@H](CC(N)=O)C(=O)N[C@H]2C(=O)N[C@H]3C(=O)N[C@H](C(=O)N[C@H](C(=O)O)c4cc(O)cc(O)c4-c4cc3ccc4O)[C@H](O)c3ccc(c(Cl)c3)Oc3cc2cc(c3O[C@@H]2O[C@H](CO)[C@@H](O)[C@H](O)[C@H]2O[C@H]2C[C@](C)(N)[C@H](O)[C@H](C)O2)Oc2ccc(cc2Cl)[C@H]1O [Vancomycin] | resistant |
